In ChEMBL document CHEMBL5505966, “Synthesis and pharmacological characterization of conformationally restricted 2-amino-Adipic acid analogs and carboxycyclopropyl glycines as selective metabotropic glutamate 2 receptor agonists” (Eur J Med Chem, 2024):
Calls of active or inactive are those of the source. The rule behind the calls is not given here.

What was measured:
Assay type in all cases: functional, cell-based
[1] = biological target: Metabotropic glutamate receptor 2 (Rattus norvegicus) (UniProt P31421); assay: Antagonist activity at rat mGluR2 receptor expressed in HEK293 cells by IP-1 HTRF assay
[2] = biological target: Metabotropic glutamate receptor 4 (Rattus norvegicus) (UniProt P31423); assay: Antagonist activity at rat mGluR4 receptor expressed in HEK293 cells by IP-1 HTRF assay
Sequence of Metabotropic glutamate receptor 4 (Rattus norvegicus) (P31423 whole entry): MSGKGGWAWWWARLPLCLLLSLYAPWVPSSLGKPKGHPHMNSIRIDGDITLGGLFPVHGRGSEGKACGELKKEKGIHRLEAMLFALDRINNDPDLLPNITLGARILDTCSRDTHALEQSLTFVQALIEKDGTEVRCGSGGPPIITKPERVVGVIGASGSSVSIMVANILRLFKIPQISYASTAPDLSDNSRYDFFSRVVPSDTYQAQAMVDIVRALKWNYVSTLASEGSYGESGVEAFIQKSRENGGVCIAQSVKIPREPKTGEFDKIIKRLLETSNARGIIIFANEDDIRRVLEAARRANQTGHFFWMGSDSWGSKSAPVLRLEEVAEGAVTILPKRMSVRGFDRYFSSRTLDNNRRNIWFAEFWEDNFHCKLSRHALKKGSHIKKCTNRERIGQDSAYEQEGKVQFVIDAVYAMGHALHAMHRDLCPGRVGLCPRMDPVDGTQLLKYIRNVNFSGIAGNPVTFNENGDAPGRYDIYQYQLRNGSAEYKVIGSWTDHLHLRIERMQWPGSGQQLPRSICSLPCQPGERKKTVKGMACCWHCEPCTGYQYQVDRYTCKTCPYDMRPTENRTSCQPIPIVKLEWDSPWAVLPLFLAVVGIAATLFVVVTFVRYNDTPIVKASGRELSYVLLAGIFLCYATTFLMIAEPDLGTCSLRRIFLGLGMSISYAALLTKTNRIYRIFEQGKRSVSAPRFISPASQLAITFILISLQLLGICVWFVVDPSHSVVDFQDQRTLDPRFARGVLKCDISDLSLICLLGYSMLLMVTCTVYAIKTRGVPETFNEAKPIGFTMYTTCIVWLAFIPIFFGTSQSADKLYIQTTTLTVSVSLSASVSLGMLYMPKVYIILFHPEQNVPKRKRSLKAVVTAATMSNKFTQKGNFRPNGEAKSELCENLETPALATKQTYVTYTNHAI

[3] = biological target: Metabotropic glutamate receptor 1 (Rattus norvegicus) (UniProt P23385); assay: Antagonist activity at rat mGluR1 receptor expressed in HEK293 cells by IP-1 HTRF assay
Sequence of Metabotropic glutamate receptor 1 (Rattus norvegicus) (P23385 19-1199 limits assumed): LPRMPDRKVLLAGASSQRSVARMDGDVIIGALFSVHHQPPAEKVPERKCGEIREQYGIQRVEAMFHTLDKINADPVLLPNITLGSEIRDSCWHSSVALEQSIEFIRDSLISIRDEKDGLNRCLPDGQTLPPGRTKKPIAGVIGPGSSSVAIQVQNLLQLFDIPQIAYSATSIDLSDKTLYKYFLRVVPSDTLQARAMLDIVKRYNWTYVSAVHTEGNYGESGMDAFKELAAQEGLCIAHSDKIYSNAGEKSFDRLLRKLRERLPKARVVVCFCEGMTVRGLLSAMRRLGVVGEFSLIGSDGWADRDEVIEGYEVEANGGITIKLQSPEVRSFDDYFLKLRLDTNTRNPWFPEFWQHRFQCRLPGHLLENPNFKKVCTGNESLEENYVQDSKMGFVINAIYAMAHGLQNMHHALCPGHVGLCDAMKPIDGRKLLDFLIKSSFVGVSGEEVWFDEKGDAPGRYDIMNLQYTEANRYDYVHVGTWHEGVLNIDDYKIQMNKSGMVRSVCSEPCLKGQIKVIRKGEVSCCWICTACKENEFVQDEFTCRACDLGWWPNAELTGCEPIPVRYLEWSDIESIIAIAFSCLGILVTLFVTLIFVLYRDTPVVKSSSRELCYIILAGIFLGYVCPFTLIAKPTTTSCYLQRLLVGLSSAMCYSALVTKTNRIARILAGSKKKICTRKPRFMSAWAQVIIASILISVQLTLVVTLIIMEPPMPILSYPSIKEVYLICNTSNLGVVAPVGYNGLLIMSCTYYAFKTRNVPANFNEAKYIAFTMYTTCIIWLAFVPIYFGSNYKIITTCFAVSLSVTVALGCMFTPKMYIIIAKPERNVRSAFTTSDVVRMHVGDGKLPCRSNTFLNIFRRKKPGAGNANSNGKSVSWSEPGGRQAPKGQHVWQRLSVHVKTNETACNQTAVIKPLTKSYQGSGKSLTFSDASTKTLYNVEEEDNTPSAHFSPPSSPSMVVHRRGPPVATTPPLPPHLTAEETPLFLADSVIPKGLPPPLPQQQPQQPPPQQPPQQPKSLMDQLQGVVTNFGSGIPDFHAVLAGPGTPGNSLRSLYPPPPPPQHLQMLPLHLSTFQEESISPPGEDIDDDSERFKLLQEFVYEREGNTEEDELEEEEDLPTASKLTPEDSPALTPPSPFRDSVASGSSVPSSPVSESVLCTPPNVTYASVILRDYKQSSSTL

[4] = biological target: Metabotropic glutamate receptor 7 (Rattus norvegicus) (UniProt P35400); assay: Agonist activity at rat mGluR7 receptor expressed in HEK293 cells at 30 uM by IP-1 HTRF assay
Sequence of Metabotropic glutamate receptor 7 (Rattus norvegicus) (P35400 whole entry): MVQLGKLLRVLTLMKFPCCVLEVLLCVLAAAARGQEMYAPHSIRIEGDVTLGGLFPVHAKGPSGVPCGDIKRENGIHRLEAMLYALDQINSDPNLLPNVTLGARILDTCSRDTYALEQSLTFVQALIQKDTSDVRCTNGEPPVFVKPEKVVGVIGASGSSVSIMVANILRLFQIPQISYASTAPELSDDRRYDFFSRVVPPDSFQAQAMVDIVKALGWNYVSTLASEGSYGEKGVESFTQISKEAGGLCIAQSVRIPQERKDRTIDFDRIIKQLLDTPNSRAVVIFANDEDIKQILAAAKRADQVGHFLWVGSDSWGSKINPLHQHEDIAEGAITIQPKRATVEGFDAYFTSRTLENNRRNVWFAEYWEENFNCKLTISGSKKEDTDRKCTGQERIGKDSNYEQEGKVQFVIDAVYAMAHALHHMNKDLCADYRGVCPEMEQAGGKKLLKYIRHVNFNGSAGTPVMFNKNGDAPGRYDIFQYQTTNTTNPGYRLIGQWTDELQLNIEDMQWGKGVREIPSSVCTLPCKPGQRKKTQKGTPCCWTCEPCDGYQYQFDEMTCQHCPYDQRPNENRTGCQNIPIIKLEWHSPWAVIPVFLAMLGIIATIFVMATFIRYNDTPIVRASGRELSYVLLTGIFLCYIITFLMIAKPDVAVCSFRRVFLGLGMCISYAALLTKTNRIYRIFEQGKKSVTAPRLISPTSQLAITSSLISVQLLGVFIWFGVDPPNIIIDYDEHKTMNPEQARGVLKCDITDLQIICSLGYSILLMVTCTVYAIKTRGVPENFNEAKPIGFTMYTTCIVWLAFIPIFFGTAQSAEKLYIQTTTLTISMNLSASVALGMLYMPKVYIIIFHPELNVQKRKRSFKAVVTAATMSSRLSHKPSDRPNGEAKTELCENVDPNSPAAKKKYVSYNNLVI

[5] = biological target: Metabotropic glutamate receptor 4 (Rattus norvegicus) (UniProt P31423); assay: Agonist activity at rat mGluR4 receptor expressed in HEK293 cells at 30 uM by IP-1 HTRF assay
[6] = biological target: Metabotropic glutamate receptor 8 (Rattus norvegicus) (UniProt P70579); assay: Agonist activity at rat mGluR8 receptor expressed in HEK293 cells at 30 uM by IP-1 HTRF assay
Sequence of Metabotropic glutamate receptor 8 (Rattus norvegicus) (P70579 whole entry): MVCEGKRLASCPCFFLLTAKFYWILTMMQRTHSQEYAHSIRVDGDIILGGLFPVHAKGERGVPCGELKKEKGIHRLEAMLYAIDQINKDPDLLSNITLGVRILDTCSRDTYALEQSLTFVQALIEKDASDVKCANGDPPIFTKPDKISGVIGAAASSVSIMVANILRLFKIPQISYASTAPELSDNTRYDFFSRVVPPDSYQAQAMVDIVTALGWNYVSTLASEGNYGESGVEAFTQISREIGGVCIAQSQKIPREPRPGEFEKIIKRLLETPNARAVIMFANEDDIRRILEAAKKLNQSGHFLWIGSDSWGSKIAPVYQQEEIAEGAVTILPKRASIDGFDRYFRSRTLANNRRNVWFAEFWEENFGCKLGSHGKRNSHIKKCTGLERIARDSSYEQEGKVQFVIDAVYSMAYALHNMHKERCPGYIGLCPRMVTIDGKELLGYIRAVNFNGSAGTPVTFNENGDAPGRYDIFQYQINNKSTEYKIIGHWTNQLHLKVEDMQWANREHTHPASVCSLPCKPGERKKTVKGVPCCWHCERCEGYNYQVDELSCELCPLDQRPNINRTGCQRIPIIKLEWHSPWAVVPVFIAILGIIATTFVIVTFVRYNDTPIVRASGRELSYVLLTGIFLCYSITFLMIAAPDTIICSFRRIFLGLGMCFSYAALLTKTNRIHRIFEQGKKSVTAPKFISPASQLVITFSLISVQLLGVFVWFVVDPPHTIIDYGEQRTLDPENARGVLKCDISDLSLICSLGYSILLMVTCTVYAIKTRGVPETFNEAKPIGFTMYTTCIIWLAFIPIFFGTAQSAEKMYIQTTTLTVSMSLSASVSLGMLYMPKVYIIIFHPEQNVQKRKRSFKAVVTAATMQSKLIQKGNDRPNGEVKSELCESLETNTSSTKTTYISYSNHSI

[7] = biological target: Metabotropic glutamate receptor 6 (Rattus norvegicus) (UniProt P35349); assay: Antagonist activity at rat mGluR6 receptor expressed in HEK293 cells by IP-1 HTRF assay
Sequence of Metabotropic glutamate receptor 6 (Rattus norvegicus) (P35349 whole entry): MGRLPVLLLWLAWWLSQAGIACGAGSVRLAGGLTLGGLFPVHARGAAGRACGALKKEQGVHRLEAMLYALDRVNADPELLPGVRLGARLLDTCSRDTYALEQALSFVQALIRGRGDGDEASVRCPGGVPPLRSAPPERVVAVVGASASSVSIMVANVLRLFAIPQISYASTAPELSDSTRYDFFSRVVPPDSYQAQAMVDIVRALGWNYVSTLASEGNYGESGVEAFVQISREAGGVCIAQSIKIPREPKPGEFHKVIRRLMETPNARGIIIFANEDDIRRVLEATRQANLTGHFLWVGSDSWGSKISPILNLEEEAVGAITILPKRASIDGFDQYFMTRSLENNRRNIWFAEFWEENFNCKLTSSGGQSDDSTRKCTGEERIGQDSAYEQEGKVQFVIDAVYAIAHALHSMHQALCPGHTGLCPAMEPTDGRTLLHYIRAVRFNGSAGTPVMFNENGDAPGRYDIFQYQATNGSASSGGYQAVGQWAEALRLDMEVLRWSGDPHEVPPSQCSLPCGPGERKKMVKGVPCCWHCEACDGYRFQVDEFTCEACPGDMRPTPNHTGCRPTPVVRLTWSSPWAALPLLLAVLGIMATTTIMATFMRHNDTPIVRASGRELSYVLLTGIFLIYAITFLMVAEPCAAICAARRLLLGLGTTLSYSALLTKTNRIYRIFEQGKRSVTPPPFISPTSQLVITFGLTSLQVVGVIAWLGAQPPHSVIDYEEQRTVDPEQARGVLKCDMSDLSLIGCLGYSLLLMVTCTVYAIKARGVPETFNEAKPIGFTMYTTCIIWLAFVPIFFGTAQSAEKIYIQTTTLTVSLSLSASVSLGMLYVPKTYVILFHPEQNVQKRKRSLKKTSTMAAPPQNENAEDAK

[8] = biological target: Metabotropic glutamate receptor 2 (Rattus norvegicus) (UniProt P31421); assay: Agonist activity at rat mGluR2 receptor expressed in HEK293 cells at 30 uM by IP-1 HTRF assay
[9] = biological target: Metabotropic glutamate receptor 5 (Rattus norvegicus) (UniProt P31424); assay: Agonist activity at rat mGluR5 receptor expressed in HEK293 cells at 30 uM by IP-1 HTRF assay
[10] = biological target: Metabotropic glutamate receptor 5 (Rattus norvegicus) (UniProt P31424); assay: Antagonist activity at rat mGluR5 receptor expressed in HEK293 cells by IP-1 HTRF assay
[11] = biological target: Metabotropic glutamate receptor 7 (Rattus norvegicus) (UniProt P35400); assay: Antagonist activity at rat mGluR7 receptor expressed in HEK293 cells by IP-1 HTRF assay
[12] = biological target: Metabotropic glutamate receptor 6 (Rattus norvegicus) (UniProt P35349); assay: Agonist activity at rat mGluR6 receptor expressed in HEK293 cells at 30 uM by IP-1 HTRF assay
[13] = biological target: Metabotropic glutamate receptor 8 (Rattus norvegicus) (UniProt P70579); assay: Antagonist activity at rat mGluR8 receptor expressed in HEK293 cells by IP-1 HTRF assay
[14] = biological target: Metabotropic glutamate receptor 1 (Rattus norvegicus) (UniProt P23385); assay: Agonist activity at rat mGluR1 receptor expressed in HEK293 cells at 30 uM by IP-1 HTRF assay
[15] = biological target: Metabotropic glutamate receptor 3 (Rattus norvegicus) (UniProt P31422); assay: Antagonist activity at rat mGluR3 receptor expressed in HEK293 cells by IP-1 HTRF assay
[16] = biological target: Metabotropic glutamate receptor 3 (Rattus norvegicus) (UniProt P31422); assay: Agonist activity at rat mGluR3 receptor expressed in HEK293 cells at 30 uM by IP-1 HTRF assay
[17] = biological target: Metabotropic glutamate receptor 2 (Rattus norvegicus, UniProt P31421); assay: Agonist activity at rat mGluR2 receptor expressed in HEK293 cells by IP-1 HTRF assay; conditions: read-out: EC50

inhibition [1]	inhibition [2]	inhibition [3]	Activity [4]	Activity [5]	Activity [6]	inhibition [7]	Activity [8]	Activity [9]	inhibition [10]	inhibition [11]	Activity [12]	inhibition [13]	Activity [14]	inhibition [15]	Activity [16]	EC50 [17]	Structure (SMILES)
inactive	inactive	inactive	inactive	inactive	inactive	inactive	inactive	inactive	inactive	inactive	inactive	inactive	inactive	inactive	inactive	–	C[C@]1(C[C@H](N)C(=O)O)C[C@@H]1C(=O)O
inactive	inactive	inactive	inactive	inactive	inactive	inactive	inactive	inactive	inactive	inactive	inactive	inactive	inactive	inactive	inactive	–	C[C@]1(C(=O)O)C[C@H]1C(N)C(=O)O (mixture of isomers)
inactive	inactive	inactive	inactive	inactive	inactive	inactive	inactive	inactive	inactive	inactive	inactive	inactive	inactive	inactive	inactive	–	C[C@]1(C[C@H](N)C(=O)O)C[C@H]1C(=O)O
inactive	inactive	inactive	inactive	inactive	inactive	inactive	–	inactive	inactive	inactive	inactive	inactive	inactive	inactive	inactive	8.9 µM	C[C@@]1(C(=O)O)C[C@@H]1C(N)C(=O)O (mixture of isomers)
inactive	inactive	inactive	inactive	inactive	inactive	inactive	–	inactive	inactive	inactive	inactive	inactive	inactive	inactive	inactive	4.1 µM	C[C@]1(C(=O)O)C[C@@H]1[C@H](N)C(=O)O
inactive	inactive	inactive	–	–	–	inactive	–	–	inactive	inactive	–	inactive	–	inactive	–	–	CC1(C[C@H](N)C(=O)O)CC1C(=O)O (some centres undefined)
inactive	inactive	inactive	inactive	inactive	inactive	inactive	–	inactive	inactive	inactive	inactive	inactive	inactive	inactive	inactive	7.5 µM	C[C@@]1(C[C@H](N)C(=O)O)C[C@@H]1C(=O)O
